The values that follow come from ChEMBL document CHEMBL4507319 (2021).

Assay [1] has as its target T1, Activin receptor type-1 (Homo sapiens) (UniProt Q04771).
T1 sequence (whole entry): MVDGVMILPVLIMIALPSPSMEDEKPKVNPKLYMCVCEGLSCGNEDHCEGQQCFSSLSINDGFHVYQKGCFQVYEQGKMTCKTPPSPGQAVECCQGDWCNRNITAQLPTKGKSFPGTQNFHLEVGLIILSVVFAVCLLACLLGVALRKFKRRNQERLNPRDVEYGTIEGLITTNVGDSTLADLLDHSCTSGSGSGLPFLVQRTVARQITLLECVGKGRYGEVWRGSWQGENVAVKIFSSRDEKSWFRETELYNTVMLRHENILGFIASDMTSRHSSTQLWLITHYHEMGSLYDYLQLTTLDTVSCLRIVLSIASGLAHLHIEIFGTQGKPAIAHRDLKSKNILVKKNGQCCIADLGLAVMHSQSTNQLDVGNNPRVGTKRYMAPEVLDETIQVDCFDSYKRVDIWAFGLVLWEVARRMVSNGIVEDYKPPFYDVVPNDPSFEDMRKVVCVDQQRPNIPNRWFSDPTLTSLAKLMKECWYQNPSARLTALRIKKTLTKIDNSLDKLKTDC
In words: ALK2(h) Eurofins kinase panel. The settings on record: Compound concentration 1.0 uM.

The target of assay [2] is Serine/threonine-protein kinase A-Raf (Homo sapiens) (UniProt P10398). Briefly: A-Raf(h) Eurofins kinase panel. The settings on record: Compound concentration 1.0 uM.
Serine/threonine-protein kinase A-Raf (Homo sapiens), sequence (P10398 whole entry): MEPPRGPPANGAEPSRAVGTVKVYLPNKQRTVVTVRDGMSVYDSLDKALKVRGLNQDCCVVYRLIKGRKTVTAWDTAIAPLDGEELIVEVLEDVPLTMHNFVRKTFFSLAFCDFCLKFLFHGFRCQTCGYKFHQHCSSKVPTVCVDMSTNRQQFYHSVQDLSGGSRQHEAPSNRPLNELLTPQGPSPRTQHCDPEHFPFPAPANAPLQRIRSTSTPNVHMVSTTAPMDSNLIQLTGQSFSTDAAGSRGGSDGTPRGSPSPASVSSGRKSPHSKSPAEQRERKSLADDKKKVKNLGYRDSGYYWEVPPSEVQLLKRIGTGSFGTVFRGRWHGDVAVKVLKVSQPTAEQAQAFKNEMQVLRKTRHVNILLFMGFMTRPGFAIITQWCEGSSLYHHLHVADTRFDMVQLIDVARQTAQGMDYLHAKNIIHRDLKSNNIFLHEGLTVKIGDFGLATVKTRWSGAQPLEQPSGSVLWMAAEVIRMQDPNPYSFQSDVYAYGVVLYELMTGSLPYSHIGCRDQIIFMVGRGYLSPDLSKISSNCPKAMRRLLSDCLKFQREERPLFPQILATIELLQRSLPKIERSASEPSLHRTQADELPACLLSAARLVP
The target of assay [3] is Calcium/calmodulin-dependent protein kinase type II subunit gamma (Homo sapiens) (UniProt Q13555). In words: CaMKIIgamma(h) Eurofins kinase panel. The settings on record: Compound concentration 1.0 uM.
Calcium/calmodulin-dependent protein kinase type II subunit gamma (Homo sapiens), sequence (Q13555 whole entry): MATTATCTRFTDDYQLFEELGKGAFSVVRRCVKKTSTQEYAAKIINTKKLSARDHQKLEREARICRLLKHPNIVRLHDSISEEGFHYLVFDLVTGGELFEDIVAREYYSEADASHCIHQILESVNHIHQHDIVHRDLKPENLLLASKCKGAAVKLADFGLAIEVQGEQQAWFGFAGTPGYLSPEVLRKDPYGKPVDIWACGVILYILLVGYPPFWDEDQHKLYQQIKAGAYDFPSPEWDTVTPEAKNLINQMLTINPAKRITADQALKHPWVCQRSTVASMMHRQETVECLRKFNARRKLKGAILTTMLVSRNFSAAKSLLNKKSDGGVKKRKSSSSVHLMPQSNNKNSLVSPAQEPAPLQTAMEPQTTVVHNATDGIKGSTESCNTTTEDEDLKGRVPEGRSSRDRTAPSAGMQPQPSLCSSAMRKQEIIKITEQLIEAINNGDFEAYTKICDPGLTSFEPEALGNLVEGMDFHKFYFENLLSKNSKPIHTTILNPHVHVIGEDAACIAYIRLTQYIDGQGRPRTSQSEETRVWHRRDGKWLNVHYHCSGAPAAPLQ
The target in assay [4] is Cyclin-dependent kinase-like 1 (Homo sapiens) (UniProt Q00532). In words: CDKL1(h) Eurofins kinase panel. The settings on record: Compound concentration 1.0 uM.
Cyclin-dependent kinase-like 1 (Homo sapiens), sequence (Q00532 whole entry, the tested form may be a part): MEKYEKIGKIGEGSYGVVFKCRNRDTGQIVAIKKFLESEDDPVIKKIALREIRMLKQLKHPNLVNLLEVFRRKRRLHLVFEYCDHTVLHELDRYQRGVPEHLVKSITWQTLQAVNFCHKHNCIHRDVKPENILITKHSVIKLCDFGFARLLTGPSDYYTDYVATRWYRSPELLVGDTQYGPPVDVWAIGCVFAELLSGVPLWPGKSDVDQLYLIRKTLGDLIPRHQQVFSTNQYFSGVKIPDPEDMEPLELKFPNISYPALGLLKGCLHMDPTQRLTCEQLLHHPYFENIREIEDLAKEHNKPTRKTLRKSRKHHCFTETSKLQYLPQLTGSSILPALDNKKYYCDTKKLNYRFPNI
For assay [5], the target named is T2, Discoidin domain-containing receptor 2 (Homo sapiens) (UniProt Q16832).
T2 sequence (whole entry): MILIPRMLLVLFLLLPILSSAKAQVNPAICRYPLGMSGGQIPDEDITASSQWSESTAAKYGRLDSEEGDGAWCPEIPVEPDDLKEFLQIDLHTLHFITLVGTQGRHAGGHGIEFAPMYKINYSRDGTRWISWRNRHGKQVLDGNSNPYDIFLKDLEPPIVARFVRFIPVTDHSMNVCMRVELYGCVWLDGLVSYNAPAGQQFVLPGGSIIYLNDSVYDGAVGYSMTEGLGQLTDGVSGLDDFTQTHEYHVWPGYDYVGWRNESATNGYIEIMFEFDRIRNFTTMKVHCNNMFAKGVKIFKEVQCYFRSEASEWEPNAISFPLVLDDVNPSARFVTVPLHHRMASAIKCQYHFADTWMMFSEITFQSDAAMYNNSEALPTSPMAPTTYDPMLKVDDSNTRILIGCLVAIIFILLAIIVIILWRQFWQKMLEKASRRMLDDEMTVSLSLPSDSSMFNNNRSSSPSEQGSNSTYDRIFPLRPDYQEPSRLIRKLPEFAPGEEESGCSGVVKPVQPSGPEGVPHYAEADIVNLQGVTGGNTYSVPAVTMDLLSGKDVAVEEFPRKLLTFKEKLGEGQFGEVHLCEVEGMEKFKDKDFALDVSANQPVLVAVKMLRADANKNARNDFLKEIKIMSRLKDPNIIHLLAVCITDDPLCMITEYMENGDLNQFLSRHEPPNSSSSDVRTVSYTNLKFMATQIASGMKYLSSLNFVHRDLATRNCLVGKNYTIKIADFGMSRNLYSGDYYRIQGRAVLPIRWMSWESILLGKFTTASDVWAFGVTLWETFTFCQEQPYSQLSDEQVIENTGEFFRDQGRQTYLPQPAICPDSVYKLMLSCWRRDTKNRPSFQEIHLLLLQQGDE
In words: DDR2(h) Eurofins kinase panel. The settings on record: Compound concentration 1.0 uM.

The target in assay [6] is Eukaryotic elongation factor 2 kinase (Homo sapiens) (UniProt O00418). In words: eEF-2K(h) Eurofins kinase panel. To be noted: Compound concentration 1.0 uM.
Eukaryotic elongation factor 2 kinase (Homo sapiens), sequence (O00418 whole entry): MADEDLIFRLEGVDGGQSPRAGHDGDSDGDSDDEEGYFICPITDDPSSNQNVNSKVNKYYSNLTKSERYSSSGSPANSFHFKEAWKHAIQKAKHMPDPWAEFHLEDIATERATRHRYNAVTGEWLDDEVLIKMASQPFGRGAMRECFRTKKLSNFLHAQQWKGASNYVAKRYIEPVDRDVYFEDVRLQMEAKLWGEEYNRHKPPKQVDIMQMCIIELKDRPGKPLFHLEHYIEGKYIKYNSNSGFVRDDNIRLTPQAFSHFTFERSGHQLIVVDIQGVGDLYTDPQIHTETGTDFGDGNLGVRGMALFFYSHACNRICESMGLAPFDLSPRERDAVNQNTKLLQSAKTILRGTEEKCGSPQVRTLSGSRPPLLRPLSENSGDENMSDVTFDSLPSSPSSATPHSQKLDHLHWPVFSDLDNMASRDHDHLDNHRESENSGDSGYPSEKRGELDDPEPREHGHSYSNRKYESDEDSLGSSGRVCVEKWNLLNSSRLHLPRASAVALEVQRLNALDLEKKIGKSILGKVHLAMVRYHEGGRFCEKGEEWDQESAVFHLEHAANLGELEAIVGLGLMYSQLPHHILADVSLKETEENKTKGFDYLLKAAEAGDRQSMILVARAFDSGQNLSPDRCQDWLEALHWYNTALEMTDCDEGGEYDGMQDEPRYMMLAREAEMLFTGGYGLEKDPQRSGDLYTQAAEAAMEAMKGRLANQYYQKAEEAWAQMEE
Assay [7] deals with T3, Ephrin type-A receptor 3 (Homo sapiens) (UniProt P29320).
T3 sequence (whole entry): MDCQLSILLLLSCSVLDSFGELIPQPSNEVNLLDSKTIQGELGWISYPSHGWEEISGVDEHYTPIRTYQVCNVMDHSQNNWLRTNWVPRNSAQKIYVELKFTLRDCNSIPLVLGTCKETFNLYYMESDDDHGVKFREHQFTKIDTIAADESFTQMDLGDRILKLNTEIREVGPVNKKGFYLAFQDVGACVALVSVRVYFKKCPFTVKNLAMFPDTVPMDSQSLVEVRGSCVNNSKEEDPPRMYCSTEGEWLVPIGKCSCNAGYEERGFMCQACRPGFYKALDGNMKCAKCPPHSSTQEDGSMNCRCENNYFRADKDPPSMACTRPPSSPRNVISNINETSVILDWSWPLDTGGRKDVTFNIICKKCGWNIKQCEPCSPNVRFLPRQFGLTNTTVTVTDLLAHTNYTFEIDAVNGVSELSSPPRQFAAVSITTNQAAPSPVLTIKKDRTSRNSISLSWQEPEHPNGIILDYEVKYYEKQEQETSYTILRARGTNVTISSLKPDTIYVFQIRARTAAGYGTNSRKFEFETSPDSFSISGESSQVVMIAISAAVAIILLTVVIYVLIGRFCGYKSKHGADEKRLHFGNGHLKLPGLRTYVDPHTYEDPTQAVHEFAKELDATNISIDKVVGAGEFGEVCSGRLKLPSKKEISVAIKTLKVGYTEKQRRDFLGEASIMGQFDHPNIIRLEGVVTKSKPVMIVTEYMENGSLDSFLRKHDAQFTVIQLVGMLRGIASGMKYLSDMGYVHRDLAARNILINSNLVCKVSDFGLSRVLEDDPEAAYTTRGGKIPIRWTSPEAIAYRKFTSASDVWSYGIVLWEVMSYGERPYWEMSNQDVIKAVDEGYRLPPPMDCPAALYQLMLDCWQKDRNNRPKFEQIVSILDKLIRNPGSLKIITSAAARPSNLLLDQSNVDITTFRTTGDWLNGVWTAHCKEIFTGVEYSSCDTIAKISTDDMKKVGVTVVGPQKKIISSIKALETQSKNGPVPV
In words: EphA3(h) Eurofins kinase panel. The settings on record: Compound concentration 1.0 uM.

The target of assay [8] is Vascular endothelial growth factor receptor 1 (Homo sapiens) (UniProt P17948). In words: Flt1(h) Eurofins kinase panel. The settings on record: Compound concentration 1.0 uM.
Vascular endothelial growth factor receptor 1 (Homo sapiens), sequence (P17948 whole entry): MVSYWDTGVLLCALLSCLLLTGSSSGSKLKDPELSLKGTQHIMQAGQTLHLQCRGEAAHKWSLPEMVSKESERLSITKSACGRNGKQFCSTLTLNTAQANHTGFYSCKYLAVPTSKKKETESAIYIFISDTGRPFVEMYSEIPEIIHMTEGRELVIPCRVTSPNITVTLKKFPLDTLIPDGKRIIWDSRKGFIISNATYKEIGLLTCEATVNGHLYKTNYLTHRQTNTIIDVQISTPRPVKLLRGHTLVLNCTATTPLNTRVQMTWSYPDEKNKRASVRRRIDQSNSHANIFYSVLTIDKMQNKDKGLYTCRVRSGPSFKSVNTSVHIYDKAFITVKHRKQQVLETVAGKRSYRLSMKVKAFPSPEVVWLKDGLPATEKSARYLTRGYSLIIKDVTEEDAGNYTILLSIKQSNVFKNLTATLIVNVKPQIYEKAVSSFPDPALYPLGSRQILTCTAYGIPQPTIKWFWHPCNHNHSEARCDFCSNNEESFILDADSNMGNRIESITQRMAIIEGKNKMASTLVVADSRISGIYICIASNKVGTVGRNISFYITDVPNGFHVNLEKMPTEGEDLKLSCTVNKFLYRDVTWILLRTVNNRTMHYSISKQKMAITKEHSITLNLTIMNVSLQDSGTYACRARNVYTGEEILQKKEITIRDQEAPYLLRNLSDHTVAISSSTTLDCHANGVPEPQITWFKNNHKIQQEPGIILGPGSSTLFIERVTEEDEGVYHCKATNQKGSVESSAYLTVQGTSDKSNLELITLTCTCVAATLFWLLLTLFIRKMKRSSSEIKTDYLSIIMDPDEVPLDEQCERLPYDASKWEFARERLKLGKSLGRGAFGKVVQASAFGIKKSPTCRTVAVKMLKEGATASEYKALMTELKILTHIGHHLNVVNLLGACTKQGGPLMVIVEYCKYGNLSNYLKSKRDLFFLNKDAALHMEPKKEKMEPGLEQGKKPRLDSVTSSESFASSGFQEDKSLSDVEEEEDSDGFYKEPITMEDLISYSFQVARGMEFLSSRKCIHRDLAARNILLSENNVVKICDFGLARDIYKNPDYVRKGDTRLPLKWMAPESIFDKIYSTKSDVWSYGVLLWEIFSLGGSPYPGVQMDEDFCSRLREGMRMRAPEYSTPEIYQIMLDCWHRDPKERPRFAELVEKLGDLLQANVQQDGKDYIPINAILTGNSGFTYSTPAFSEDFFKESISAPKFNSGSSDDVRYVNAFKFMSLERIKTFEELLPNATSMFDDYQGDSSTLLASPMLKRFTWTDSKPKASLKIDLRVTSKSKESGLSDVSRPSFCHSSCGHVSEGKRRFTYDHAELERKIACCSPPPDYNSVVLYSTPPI
Assay [9] has as its target Tyrosine-protein kinase HCK (Homo sapiens) (UniProt P08631). In words: Hck(h) activated Eurofins kinase panel. To be noted: Compound concentration 1.0 uM.
The next assay has as its system OCI-Ly7. In words: Oci-Ly-7 cell line Proliferation assay. The class given is functional, Homo sapiens. To be noted: time 3 day.

Tyrosine-protein kinase HCK (Homo sapiens), sequence (P08631 2-526 limits assumed): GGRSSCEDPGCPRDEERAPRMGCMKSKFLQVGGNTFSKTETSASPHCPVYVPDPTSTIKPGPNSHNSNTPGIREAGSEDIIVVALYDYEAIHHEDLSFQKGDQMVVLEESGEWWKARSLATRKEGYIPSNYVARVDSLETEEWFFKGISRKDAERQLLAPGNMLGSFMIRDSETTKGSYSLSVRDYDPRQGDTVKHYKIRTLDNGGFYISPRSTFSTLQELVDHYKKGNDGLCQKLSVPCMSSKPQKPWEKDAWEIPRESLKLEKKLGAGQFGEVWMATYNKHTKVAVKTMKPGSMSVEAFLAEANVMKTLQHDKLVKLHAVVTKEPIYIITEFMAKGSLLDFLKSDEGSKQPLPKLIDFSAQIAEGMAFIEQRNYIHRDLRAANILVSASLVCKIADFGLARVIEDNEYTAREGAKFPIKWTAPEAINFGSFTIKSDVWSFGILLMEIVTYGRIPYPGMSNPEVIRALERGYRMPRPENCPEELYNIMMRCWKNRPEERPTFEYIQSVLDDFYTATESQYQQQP

For the compound `CCc1ccccc1C(=O)Nc1n[nH]c2c(C)c(F)c(C3C(C#N)=C(C)N(C)C(C)=C3C#N)cc12` [BAY-3827], the % residual kinase activity was 109% in assay [1]; 78% in assay [2]; 79% in [3]; 95% in assay [4]; 92% in assay [5]; 141% in assay [6]. Besides, the figures for the % residual kinase activity in assay [7], in assay [8] and in assay [9] were 112%, 96% and 109%, respectively. Besides, the “Cell Proliferation IC50” value with OCI-Ly7 worked out at 12.2 µM.
